Experimental data as given in the NIST ThermoML archive (doi:10.1016/j.tca.2011.12.010).
± gives the expanded uncertainty stated by the source.

Assay: Molar enthalpy of transition or fusion
Conditions: DSC

## O=[N+]([O-])[O-].O=[N+]([O-])[O-].O=[N+]([O-])[O-].O=[N+]([O-])[O-].[K+].[K+].[Mg+2] [bis-potassium magnesium nitrate]
Crystal 1
  Molar enthalpy of transition or fusion: 4.95 ± 0.151 kcal/mol
Crystal 2
  Molar enthalpy of transition or fusion: 0.648 ± 0.0478 kcal/mol
